The text below walks through data of patent publication US20210379040A1, “COMBINATION TREATMENT OF LIVER DISORDERS” (Terns Pharmaceuticals, Inc., priority 2020, published 2021).

A short description of data set [1]: PK/PD profile, single oral dose. The class given is in vivo. The settings on record: cynomolgus monkey, plasma, cynomolgus monkeys; for AUC(0-t): read-out: AUC0-24. Here is the method: Pharmacokinetics data is presented in Table 3, and were determined by non-compartmental analysis.
The nature of data set [2]: Pharmacokinetics assay, rat. Particulars: plasma, Sprague-Dawley Rat. The format is in vivo, Sprague-Dawley (SD) rats. The source says:
Results are shown in FIG. 1A (IV administration) and FIG. 1B (oral administration), and in Table 2. […] Smaller Vdss in monkeys is correlated with higher plasma protein binding.

In data set [3] the test system is human hepatocytes. The data set can be described thus: In vitro metabolic stability in cryopreserved hepatocytes (human). The class given is in vitro ADME. On the procedure:
In vitro half-life values were determined and scaled to predict hepatic clearance (CLpred) and hepatic extraction using the well-stirred liver model with no correction for plasma protein as described in Obach et al., The Prediction of Human Pharmacokinetic Parameters from Preclinical and In Vitro Metabolism Data, J. of Pharmacology and Experimental Therapeutics, vol. 283, no. 1, pp. 46-58 (1997).

The nature of data set [4]: Clinical study, Second Study (7 days daily oral dosing). Particulars: for AUC: human, in vivo, po.
The target in data set [5] is T1, plasma SSAO (Homo sapiens, UniProt Q16853).
T1 construct: from tissue; host or cells: plasma of healthy participants
T1 sequence (Q16853 27-763 limits assumed): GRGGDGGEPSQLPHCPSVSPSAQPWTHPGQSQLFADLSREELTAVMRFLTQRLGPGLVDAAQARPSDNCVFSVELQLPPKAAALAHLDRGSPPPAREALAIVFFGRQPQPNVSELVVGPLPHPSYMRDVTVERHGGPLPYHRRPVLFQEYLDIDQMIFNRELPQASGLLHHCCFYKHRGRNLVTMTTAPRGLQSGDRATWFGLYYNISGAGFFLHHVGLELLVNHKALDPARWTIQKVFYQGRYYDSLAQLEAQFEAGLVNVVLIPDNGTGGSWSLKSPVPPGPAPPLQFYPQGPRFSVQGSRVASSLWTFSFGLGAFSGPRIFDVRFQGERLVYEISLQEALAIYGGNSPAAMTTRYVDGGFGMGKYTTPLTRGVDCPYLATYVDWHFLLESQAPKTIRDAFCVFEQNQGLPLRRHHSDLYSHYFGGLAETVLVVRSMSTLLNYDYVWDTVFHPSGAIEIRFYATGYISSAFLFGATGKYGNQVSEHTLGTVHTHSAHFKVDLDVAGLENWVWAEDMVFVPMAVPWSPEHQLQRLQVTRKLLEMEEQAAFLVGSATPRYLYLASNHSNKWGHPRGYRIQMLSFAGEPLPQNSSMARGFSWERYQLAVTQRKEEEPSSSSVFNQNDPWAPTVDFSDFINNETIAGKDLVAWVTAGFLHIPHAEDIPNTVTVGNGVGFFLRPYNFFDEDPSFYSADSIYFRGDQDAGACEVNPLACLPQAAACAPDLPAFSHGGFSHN
The data set can be described thus: Single-ascending dose clinical trial: plasma amine oxidase activity and methylamine. The class given is in vivo. On the procedure:
Safety was assessed for 7 (±3) days after dosing.
Plasma PK parameters were determined by non-compartmental analysis.
SSAO-specific amine oxidase levels in plasma were determined using a kinetic-based assay essentially as described previously (Schilter et al). Endogenous monoamine oxidases A and B were inhibited by adding pargyline to plasma samples prior to measuring H2O2 generation levels in placebo and active recipients. Maximum inhibition was defined by pre-dose (baseline) samples additionally treated with a high dose of Compound 2 and percent changes in SSAO-specific activity were calculated relative to baseline samples.

Data set [6] addresses T2, MAO-B (Homo sapiens, UniProt P27338).
T2 sequence (P27338 1-520): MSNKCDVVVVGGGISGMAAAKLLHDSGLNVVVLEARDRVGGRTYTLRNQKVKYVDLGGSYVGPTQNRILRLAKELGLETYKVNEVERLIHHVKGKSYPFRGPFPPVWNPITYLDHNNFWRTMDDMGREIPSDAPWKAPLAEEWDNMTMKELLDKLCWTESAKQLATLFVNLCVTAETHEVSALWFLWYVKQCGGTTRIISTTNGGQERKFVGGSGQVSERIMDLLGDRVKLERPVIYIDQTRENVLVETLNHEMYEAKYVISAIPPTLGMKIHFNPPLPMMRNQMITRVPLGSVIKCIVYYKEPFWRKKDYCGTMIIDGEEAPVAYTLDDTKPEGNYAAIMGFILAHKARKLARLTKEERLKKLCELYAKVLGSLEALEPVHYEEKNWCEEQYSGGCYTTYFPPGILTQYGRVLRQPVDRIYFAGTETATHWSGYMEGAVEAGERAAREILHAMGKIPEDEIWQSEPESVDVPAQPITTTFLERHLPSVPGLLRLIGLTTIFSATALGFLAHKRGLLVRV
The data set can be described thus: Biochemical activity, MAO-B.

Data set [7] in a line: Single-ascending dose clinical trial: plasma PK and safety.
Description: SSAO inhibition was determined by measuring relative reductions in plasma H2O2 generation after addition of an exogenous substrate (benzylamine). […] Safety was assessed for 7 (±3) days after dosing.
Plasma PK parameters were determined by non-compartmental analysis. […] Percent change in total amine oxidase activity was determined relative to the corresponding pre-dose (baseline) samples.

Read-outs that look alike come from different tables or passages of the source.

The term Cmax denotes the peak of the concentration-time curve. For orientation: Tmax means the time at which the peak concentration occurs. A word on the clearance: it is the rate of elimination divided by the concentration. Usually bioavailability stands for dose-corrected exposure relative to a reference, in per cent. Higher therefore signals good availability. A word on the AUC: it is concentration integrated over time. A high value points to high exposure. Consider `Cn1cc(C(=O)O)c2ccc(N3CCC(OCc4c(-c5c(Cl)cccc5Cl)noc4C4CC4)CC3)cc21` [Compound 1], for which the Cmax in data set [1] (oral 0.3 mg/kg) was determined as 58.8 ± 30.2 ng/mL; in data set [1] (oral 1 mg/kg), 257 ± 124 ng/mL; in data set [1] (oral 5 mg/kg), 709 ± 458 ng/mL. The results for the Tmax in data set [1] (oral 0.3 mg/kg), in data set [1] (oral 1 mg/kg) and in data set [1] (oral 5 mg/kg) were 2.17 ± 1.47 h, 1.83 ± 1.17 h and 2.25 ± 1.47 h, respectively. Further, the AUC(0-t) in data set [1] (oral 0.3 mg/kg) turned out to be 196 ± 64 ng·h/mL; in data set [1] (oral 1 mg/kg) it was 1000 ± 419 ng·h/mL; in data set [1] (oral 5 mg/kg) it was 2720 ± 1500 ng·h/mL. Also, the clearance in data set [2] (iv, intravenously 1 mg/kg) is 42.5 mL/min/kg. The half-life in data set [2] (iv, intravenously 1 mg/kg, read-out: IV Terminal t1/2 (converted)) is 2.45 h. In addition, the Vd in data set [2] (iv, intravenously 1 mg/kg, read-out: Vdss) came to 1.31 L/kg. The same compound yielded a bioavailability in data set [2] (po, orally 10 mg/kg) of 21%. Besides, the “Hepatic Extraction” value in data set [3] is 67.0 ± 1.73%. In data set [3] (well-stirred liver model), the “In vitro Metabolic CLpred” value was 13.8 ± 3.67 mL/min/kg. Moreover, the Pruritus result in data set [4] (Compound 1 25 mg oral daily for 7 days) is given as “No”; in data set [4] (Compound 1 75 mg oral daily for 7 days), “No”; in data set [4] (Compound 1 150 mg oral daily for 7 days), “No”; in data set [4] (subjects taking the highest doses), “no pruritus was observed”. Also, the AUC in data set [4] (25 mg) worked out at 645 ng·h/mL; in data set [4] (75 mg), 1480 ng·h/mL; in data set [4] (150 mg), 2160 ng·h/mL.
The IC50 is the concentration that inhibits the measured activity by half. Lower therefore signals greater potency in that assay. With `COC1CCN(c2ncc(OC/C(=C/F)CN)cn2)CC1` [Compound 2], in data set [5] (4 hours post-dose, all dose cohorts (1, 3, 6, 10 mg single dose)), the “inhibition of plasma SSAO activity” value is reported as “near complete inhibition”. Also, the “duration of continued suppression of plasma SSAO activity” value in data set [5] (after a single dose) is on record as “up to 1 week”. The plasma methylamine entry in data set [5] (single dose 1, 3, 6, 10 mg) is recorded as “Dose-dependent increases”. In addition, the IC50 in data set [6] was > 50 µM. Also, in data set [7] (between the 3 and 10 mg dose levels, single oral dose), the “plasma PK exposure increase with dose” value is listed as “greater than dose proportional”. Moreover, in data set [7] (doses 1, 3, 6, and 10 mg, single dose), the tolerability entry was “well tolerated”. Further, in data set [7] (healthy humans, single oral dose 1-10 mg), the “adverse events or laboratory abnormalities” value is “No clinically relevant adverse events or laboratory abnormalities were reported”. The compound further gave a half-life in data set [7] (male, human, plasma, po, 10 mg) of 1 to 3 h.
